Data as given in US20110295343A1, “NEAR-INFRARED ELECTROMAGNETIC MODIFICATION OF CELLULAR STEADY-STATE MEMBRANE POTENTIALS” (priority 2008, published 2011).
“And” between values parts separate entries of the source, which are not always exact repeats. Equal values may be shown once.

System: MRSA (ATCC BAA-43)
Test: MRSA/antimicrobial potentiation, CFU on TSB agar with and without antibiotic after laser (Example XXII, Experiments 1-4)
Type: cell-based, Staphylococcus aureus subsp. aureus
Settings: for CFU (single plate count): 0.5 μg/ml penicillin G or 4 μg/ml erythromycin, plates 1-5; for AVG (CFU): mean of 5 plates; for Drug Effect: CFU with drug relative to without drug; for Laser Effect (+Drug): Exp vs Cont, both with drug; for Laser Effect (+Meth): both on 30 μg/ml methicillin; for Meth Effect: CFU with methicillin / without; for AVG: mean of plates; for CFU: replicate plates
Protocol: Four separate experiments have been performed.
Eight different laser dosages were used to treat a saline-suspension of logarithmically growing MRSA, labeled A1 to H1.
The treated and a control untreated suspension were diluted and plated in triplicate on trypic soy agar with or without 30 μg/ml methicillin After 24 hrs of growth at 37° C. colonies were counted.
CFU (colony forming units) were compared between the plates with and without methicillin for both control (untreated) and treated MRSA.
The treated and a control untreated suspension were diluted and plated in triplicate on trypic soy agar with or without 30 μg/mlmethicillin.
After 24 hrs of growth at 37° C. colonies were counted.
The treated and a control untreated suspension were diluted and plated in pentuplicate on trypic soy agar with or without 30 μg/ml methicillin.

[1] = Cont (no laser), Drug yes, groups A4/C4/E4
[2] = Cont (no laser), Drug yes, groups B4/D4/F4
[3] = Exp (laser 870+930 at 5 W 14 min, then 930 at 6 W 9 min), Drug yes, groups B4/D4/F4
[4] = Exp (laser 870+930 at 5.5 W 12 min, then 930 at 8 W 6 min), Drug yes, groups A4/C4/E4
[5] = Exp#1 A1 Cont (no laser), agar with 30 μg/ml methicillin
[6] = Exp#1 A1 Exp (laser treated), agar with 30 μg/ml methicillin
[7] = Exp#1 B1 Cont (no laser), agar with 30 μg/ml methicillin
[8] = Exp#1 B1 Exp (laser treated), agar with 30 μg/ml methicillin
[9] = Exp#1 C1 Cont (no laser), agar with 30 μg/ml methicillin
[10] = Exp#1 C1 Exp (laser treated), agar with 30 μg/ml methicillin
[11] = Exp#1 D1 Cont (no laser), agar with 30 μg/ml methicillin
[12] = Exp#1 D1 Exp (laser treated), agar with 30 μg/ml methicillin
[13] = Exp#1 E1 Cont (no laser), agar with 30 μg/ml methicillin
[14] = Exp#1 E1 Exp (laser treated), agar with 30 μg/ml methicillin
[15] = Exp#1 F1 Cont (no laser), agar with 30 μg/ml methicillin
[16] = Exp#1 F1 Exp (laser treated), agar with 30 μg/ml methicillin
[17] = Exp#1 G1 Cont (no laser), agar with 30 μg/ml methicillin
[18] = Exp#1 G1 Exp (laser treated), agar with 30 μg/ml methicillin
[19] = Exp#1 H1 Cont (no laser), agar with 30 μg/ml methicillin
[20] = Exp#1 H1 Exp (laser treated), agar with 30 μg/ml methicillin
[21] = Exp#2 A2 Cont (no laser), agar with 30 μg/ml methicillin
[22] = Exp#2 A2 Exp (laser treated), agar with 30 μg/ml methicillin
[23] = Exp#2 B2 Cont (no laser), agar with 30 μg/ml methicillin
[24] = Exp#2 B2 Exp (laser treated), agar with 30 μg/ml methicillin

SMILES: COc1cccc(OC)c1C(=O)N[C@@H]1C(=O)N2[C@@H]1SC(C)(C)[C@@H]2C(=O)O [Methicillin]
- CFU/ml [1]: 2.59E+08 CFU/ml
- CFU (single plate count) (Cont (no laser), Drug yes, groups A4/C4/E4, agar with 30 μg/ml methicillin, 24 hrs 37° C.): 97 CFU and 104 CFU and 82 CFU and 58 CFU and 90 CFU
- AVG (CFU) [1]: 86.2 CFU
- CFU/ml [2]: 3.98E+08 CFU/ml
- CFU (single plate count) (Cont (no laser), Drug yes, groups B4/D4/F4, agar with 30 μg/ml methicillin, 24 hrs 37° C.): 149 CFU and 101 CFU and 119 CFU and 153 CFU and 141 CFU
- AVG (CFU) [2]: 132.6 CFU
- Drug Effect (Cont (no laser), groups A4/C4/E4): 0.94
- Drug Effect (Cont (no laser), groups B4/D4/F4): 1.26
- CFU/ml [3]: 1.27E+08 CFU/ml
- AVG (CFU) [3]: 42.4 CFU
- Drug Effect (Exp (laser 870+930 at 5 W 14 min, then 930 at 6 W 9 min), groups B4/D4/F4): 0.48
- CFU/ml [4]: 1.09E+08 CFU/ml
- AVG (CFU) [4]: 36.2 CFU
- Drug Effect (Exp (laser 870+930 at 5.5 W 12 min, then 930 at 8 W 6 min), groups A4/C4/E4): 0.43
- CFU (single plate count) (Exp (laser: 870 at 5 W and 930 at 5 W for 14 min followed by 930 at 6 W for 9 min), Drug yes, groups B4/D4/F4, 30 μg/ml methicillin): 46 CFU and 34 CFU and 42 CFU and 44 CFU
- CFU (single plate count) (Exp (laser: 870 at 5.5 W and 930 at 5.5 W for 12 min followed by 930 at 8 W for 6 min), Drug yes, groups A4/C4/E4, 30 μg/ml methicillin): 37 CFU and 33 CFU and 36 CFU and 39 CFU
- Laser Effect (+Drug) (laser 870+930 at 5 W 14 min, then 930 at 6 W 9 min, groups B4/D4/F4): 0.32
- Laser Effect (+Drug) (laser 870+930 at 5.5 W 12 min, then 930 at 8 W 6 min, groups A4/C4/E4): 0.42
- Laser Effect (+Meth) (Exp#1 A1, laser Exp / Cont): 0.7035
- Meth Effect (Exp#1 A1 Cont (no laser)): 0.6956
- CFU/ml [5]: 4.25E+08 CFU/ml
- AVG [5]: 141.7 CFU
- CFU [5]: 207 CFU and 137 CFU and 81 CFU
- Meth Effect (Exp#1 A1 Exp (laser treated)): 0.7419
- CFU/ml [6]: 2.99E+08 CFU/ml
- AVG [6]: 99.7 CFU
- CFU [6]: 99 CFU and 96 CFU and 104 CFU
- Laser Effect (+Meth) (Exp#1 B1, laser Exp / Cont): 0.6693
- Meth Effect (Exp#1 B1 Cont (no laser)): 0.8991
- CFU/ml [7]: 5.08E+08 CFU/ml
- AVG [7]: 169.3 CFU
- CFU [7]: 166 CFU and 192 CFU and 150 CFU
- Meth Effect (Exp#1 B1 Exp (laser treated)): 0.5657
- CFU/ml [8]: 3.40E+08 CFU/ml
- AVG [8]: 113.3 CFU
- CFU [8]: 102 CFU and 107 CFU and 131 CFU
- Laser Effect (+Meth) (Exp#1 C1, laser Exp / Cont): 0.3259
- Meth Effect (Exp#1 C1 Cont (no laser)): 1.267
- CFU/ml [9]: 1.22E+09 CFU/ml
- AVG [9]: 406 CFU
- CFU [9]: 240 CFU and 466 CFU and 512 CFU
- Meth Effect (Exp#1 C1 Exp (laser treated)): 0.7192
- CFU/ml [10]: 3.97E+08 CFU/ml
- AVG [10]: 132.3 CFU
- CFU [10]: 95 CFU and 176 CFU and 126 CFU
- Laser Effect (+Meth) (Exp#1 D1, laser Exp / Cont): 1.0087
- Meth Effect (Exp#1 D1 Cont (no laser)): 0.837
- CFU/ml [11]: 4.62E+08 CFU/ml
- AVG [11]: 154 CFU
- CFU [11]: 171 CFU and 141 CFU and 150 CFU
- Meth Effect (Exp#1 D1 Exp (laser treated)): 0.7627
- CFU/ml [12]: 4.66E+08 CFU/ml
- AVG [12]: 155.3 CFU
- CFU [12]: 164 CFU and 153 CFU and 149 CFU
- Laser Effect (+Meth) (Exp#1 E1, laser Exp / Cont): 1.632
- Meth Effect (Exp#1 E1 Cont (no laser)): 0.5828
- CFU/ml [13]: 3.94E+08 CFU/ml
- AVG [13]: 131.3 CFU
- CFU [13]: 147 CFU and 121 CFU and 126 CFU
- Meth Effect (Exp#1 E1 Exp (laser treated)): 0.8297
- CFU/ml [14]: 6.43E+08 CFU/ml
- AVG [14]: 214.3 CFU
- CFU [14]: 181 CFU and 232 CFU and 230 CFU
- Laser Effect (+Meth) (Exp#1 F1, laser Exp / Cont): 0.9949
- Meth Effect (Exp#1 F1 Cont (no laser)): 0.8735
- CFU/ml [15]: 5.94E+08 CFU/ml
- AVG [15]: 198 CFU
- CFU [15]: 197 CFU and 188 CFU and 209 CFU
- Meth Effect (Exp#1 F1 Exp (laser treated)): 0.8289
- CFU/ml [16]: 5.91E+08 CFU/ml
- AVG [16]: 197 CFU
- CFU [16]: 206 CFU (2×) and 179 CFU
- Laser Effect (+Meth) (Exp#1 G1, laser Exp / Cont): 0.9605
- Meth Effect (Exp#1 G1 Cont (no laser)): 0.9792
- CFU/ml [17]: 6.58E+08 CFU/ml
- AVG [17]: 219.3 CFU
- CFU [17]: 246 CFU and 222 CFU and 190 CFU
- Meth Effect (Exp#1 G1 Exp (laser treated)): 0.8681
- CFU/ml [18]: 6.32E+08 CFU/ml
- AVG [18]: 210.7 CFU
- CFU [18]: 193 CFU and 237 CFU and 202 CFU
- Laser Effect (+Meth) (Exp#1 H1, laser Exp / Cont): 1.0381
- Meth Effect (Exp#1 H1 Cont (no laser)): 0.7533
- CFU/ml [19]: 5.77E+08 CFU/ml
- AVG [19]: 192.3 CFU
- CFU [19]: 188 CFU and 206 CFU and 183 CFU
- Meth Effect (Exp#1 H1 Exp (laser treated)): 0.815
- CFU/ml [20]: 5.99E+08 CFU/ml
- AVG [20]: 199.7 CFU
- CFU [20]: 211 CFU and 212 CFU and 176 CFU
- Laser Effect (+Meth) (Exp#2 A2, laser Exp / Cont): 1.15
- Meth Effect (Exp#2 A2 Cont (no laser)): 0.72
- CFU/ml [21]: 1.07E+08 CFU/ml
- AVG [21]: 35.7 CFU
- CFU [21]: 35 CFU and 47 CFU and 25 CFU
- Meth Effect (Exp#2 A2 Exp (laser treated)): 0.87
- CFU/ml [22]: 1.23E+08 CFU/ml
- AVG [22]: 41 CFU
- CFU [22]: 39 CFU and 48 CFU and 36 CFU
- Laser Effect (+Meth) (Exp#2 B2, laser Exp / Cont): 0.54
- Meth Effect (Exp#2 B2 Cont (no laser)): 0.7
- CFU/ml [23]: 1.49E+08 CFU/ml
- AVG [23]: 49.7 CFU
- CFU [23]: 47 CFU and 56 CFU and 46 CFU
- Meth Effect (Exp#2 B2 Exp (laser treated)): 0.77
- CFU/ml [24]: 8.00E+07 CFU/ml
- AVG [24]: 26.7 CFU
- CFU [24]: 27 CFU and 28 CFU and 25 CFU
- Laser Effect (+Meth) (Exp#2 C2, laser Exp / Cont): 0.23
- Meth Effect (Exp#2 C2 Cont (no laser)): 0.99
